# From ChEMBL document CHEMBL3885881, “DrugMatrix”
# Species on record: Rattus norvegicus
# Assay: DrugMatrix - Regimen: Daily Repeat
# Type: toxicity, organism-based, Sprague-Dawley
# Parameters: regimen Daily Repeat, gender Male, age 6-8 weeks
# Conditions: in vivo, po, route oral GAVAGE, vehicle .5 % CMC; for ABSOLUTE BASOPHIL / ABSOLUTE EOSINOPHIL / ABSOLUTE LYMPHOCYTE / ABSOLUTE MONOCYTE / ABSOLUTE SEGMENTED NEUTROPHIL / BASOPHIL / EOSINOPHIL / ERYTHROCYTE COUNT / HEMATOCRIT / HEMOGLOBIN / LEUKOCYTE COUNT / LYMPHOCYTE / MEAN CORPUSCULAR HEMOGLOBIN / MEAN CORPUSCULAR HEMOGLOBIN CONCENTRATION / MEAN CORPUSCULAR VOLUME / MONOCYTE / NEUTROPHIL / NUCLEATED RED BLOOD CELLS / PLATELET COUNT: tissue Blood; for ALANINE AMINOTRANSFERASE / ALBUMIN / ALKALINE PHOSPHATASE / ASPARTATE AMINOTRANSFERASE / BLOOD UREA NITROGEN / CARBON DIOXIDE / CHLORIDE / CHOLESTEROL / CREATINE PHOSPHOKINASE / CREATININE / GLUCOSE / LACTATE DEHYDROGENASE / LIPASE / PHOSPHORUS / POTASSIUM / SODIUM / TOTAL BILIRUBIN / TOTAL PROTEIN / URIC ACID: tissue Plasma
# [1] = 200 mg/kg, 120 h, dose level Low, time 5 day
# [2] = 2500 mg/kg, 72 h, dose level High, time 3 day
# [3] = 2500 mg/kg, 120 h, dose level High, time 5 day
smiles,measurement,setting,value
Cc1cnc(C(=O)NCCc2ccc(S(=O)(=O)NC(=O)NC3CCCCC3)cc2)cn1 [GLIPIZIDE],ABSOLUTE BASOPHIL,[1],0 CELLS/uL
same,ABSOLUTE EOSINOPHIL,[1],50.67 CELLS/uL
same,ABSOLUTE LYMPHOCYTE,[1],13488 CELLS/uL
same,ABSOLUTE MONOCYTE,[1],195 CELLS/uL
same,ABSOLUTE SEGMENTED NEUTROPHIL,[1],633 CELLS/uL
same,BASOPHIL,[1],0%
same,EOSINOPHIL,[1],0.33%
same,ERYTHROCYTE COUNT,[1],5.57 x10E6/uL
same,HEMATOCRIT,[1],34.23%
same,HEMOGLOBIN,[1],13.7 G/DL
same,LEUKOCYTE COUNT,[1],14.37 x10E3/uL
same,LYMPHOCYTE,[1],94%
same,MEAN CORPUSCULAR HEMOGLOBIN,[1],24.63 pg
same,MEAN CORPUSCULAR HEMOGLOBIN CONCENTRATION,[1],40 G/DL
same,MEAN CORPUSCULAR VOLUME,[1],61.53 fL
same,MONOCYTE,[1],1.33%
same,NEUTROPHIL,[1],4.33%
same,NUCLEATED RED BLOOD CELLS,[1],0 /100WBC
same,PLATELET COUNT,[1],1282.33 x10E3/uL
same,ALANINE AMINOTRANSFERASE,[1],62.33 u/L
same,ALBUMIN,[1],4.3 G/DL
same,ALKALINE PHOSPHATASE,[1],343.67 u/L
same,ASPARTATE AMINOTRANSFERASE,[1],82.67 u/L
same,BLOOD UREA NITROGEN,[1],14 mg/dL
same,CARBON DIOXIDE,[1],32.33 mmol/L
same,CHLORIDE,[1],103 MEQ/L
same,CHOLESTEROL,[1],74.67 mg/dL
same,CREATINE PHOSPHOKINASE,[1],208.33 u/L
same,CREATININE,[1],0.13 mg/dL
same,GLUCOSE,[1],118.67 mg/dL
same,LACTATE DEHYDROGENASE,[1],116.33 u/L
same,LIPASE,[1],10.67 u/L
same,PHOSPHORUS,[1],10.77 mg/dL
same,POTASSIUM,[1],6.11 MEQ/L
same,SODIUM,[1],144.93 MEQ/L
same,TOTAL BILIRUBIN,[1],0.2 mg/dL
same,TOTAL PROTEIN,[1],6.03 G/DL
same,URIC ACID,[1],0.9 mg/dL
same,ABSOLUTE BASOPHIL,[2],0 CELLS/uL
same,ABSOLUTE EOSINOPHIL,[2],83.33 CELLS/uL
same,ABSOLUTE LYMPHOCYTE,[2],11306.67 CELLS/uL
same,ABSOLUTE MONOCYTE,[2],81.67 CELLS/uL
same,ABSOLUTE SEGMENTED NEUTROPHIL,[2],861.67 CELLS/uL
same,BASOPHIL,[2],0%
same,EOSINOPHIL,[2],0.67%
same,ERYTHROCYTE COUNT,[2],5.69 x10E6/uL
same,HEMATOCRIT,[2],36.9%
same,HEMOGLOBIN,[2],14.23 G/DL
same,LEUKOCYTE COUNT,[2],12.33 x10E3/uL
same,LYMPHOCYTE,[2],91.67%
same,MEAN CORPUSCULAR HEMOGLOBIN,[2],25.07 pg
same,MEAN CORPUSCULAR HEMOGLOBIN CONCENTRATION,[2],38.57 G/DL
same,MEAN CORPUSCULAR VOLUME,[2],64.9 fL
same,MONOCYTE,[2],0.67%
same,NEUTROPHIL,[2],7%
same,NUCLEATED RED BLOOD CELLS,[2],0 /100WBC
same,PLATELET COUNT,[2],1346.67 x10E3/uL
same,ALANINE AMINOTRANSFERASE,[2],54 u/L
same,ALBUMIN,[2],4.17 G/DL
same,ALKALINE PHOSPHATASE,[2],318.33 u/L
same,ASPARTATE AMINOTRANSFERASE,[2],75.33 u/L
same,BLOOD UREA NITROGEN,[2],16 mg/dL
same,CARBON DIOXIDE,[2],31 mmol/L
same,CHLORIDE,[2],102.33 MEQ/L
same,CHOLESTEROL,[2],72.33 mg/dL
same,CREATINE PHOSPHOKINASE,[2],179.33 u/L
same,CREATININE,[2],0.15 mg/dL
same,GLUCOSE,[2],148.67 mg/dL
same,LACTATE DEHYDROGENASE,[2],104.33 u/L
same,LIPASE,[2],10 u/L
same,PHOSPHORUS,[2],11.9 mg/dL
same,POTASSIUM,[2],6.37 MEQ/L
same,SODIUM,[2],143.83 MEQ/L
same,TOTAL BILIRUBIN,[2],0.17 mg/dL
same,TOTAL PROTEIN,[2],5.63 G/DL
same,URIC ACID,[2],1.7 mg/dL
same,ABSOLUTE BASOPHIL,[3],0 CELLS/uL
same,ABSOLUTE EOSINOPHIL,[3],102.33 CELLS/uL
same,ABSOLUTE LYMPHOCYTE,[3],11867.33 CELLS/uL
same,ABSOLUTE MONOCYTE,[3],0 CELLS/uL
same,ABSOLUTE SEGMENTED NEUTROPHIL,[3],1397 CELLS/uL
same,BASOPHIL,[3],0%
same,EOSINOPHIL,[3],0.67%
same,ERYTHROCYTE COUNT,[3],5.55 x10E6/uL
same,HEMATOCRIT,[3],34.63%
same,HEMOGLOBIN,[3],14.1 G/DL
same,LEUKOCYTE COUNT,[3],13.37 x10E3/uL
same,LYMPHOCYTE,[3],88%
same,MEAN CORPUSCULAR HEMOGLOBIN,[3],25.4 pg
same,MEAN CORPUSCULAR HEMOGLOBIN CONCENTRATION,[3],40.73 G/DL
same,MEAN CORPUSCULAR VOLUME,[3],62.37 fL
same,MONOCYTE,[3],0%
same,NEUTROPHIL,[3],11.33%
same,NUCLEATED RED BLOOD CELLS,[3],0 /100WBC
same,PLATELET COUNT,[3],1273.67 x10E3/uL
same,ALANINE AMINOTRANSFERASE,[3],58 u/L
same,ALBUMIN,[3],4.37 G/DL
same,ALKALINE PHOSPHATASE,[3],329 u/L
same,ASPARTATE AMINOTRANSFERASE,[3],83.33 u/L
same,BLOOD UREA NITROGEN,[3],15 mg/dL
same,CARBON DIOXIDE,[3],30.67 mmol/L
same,CHLORIDE,[3],100.67 MEQ/L
same,CHOLESTEROL,[3],71 mg/dL
same,CREATINE PHOSPHOKINASE,[3],224.33 u/L
same,CREATININE,[3],0.19 mg/dL
same,GLUCOSE,[3],140.33 mg/dL
same,LACTATE DEHYDROGENASE,[3],117 u/L
same,LIPASE,[3],7.67 u/L
same,PHOSPHORUS,[3],11.13 mg/dL
same,POTASSIUM,[3],5.21 MEQ/L
same,SODIUM,[3],146.2 MEQ/L
same,TOTAL BILIRUBIN,[3],0.2 mg/dL
same,TOTAL PROTEIN,[3],6.17 G/DL
same,URIC ACID,[3],0.8 mg/dL
